Broadly, the IC50 is the concentration at which inhibition is half-maximal.

The structures appear in SMILES notation.

Drawing on patent US11578061B2, “Inhibitors of LRRK2 kinase” (Halia Therapeutics, Inc., priority 2021, dated 2023), this text covers IC50 for 23 compounds.

Sequence of recombinant human LRRK2 (catalytic domain only [amino acids 970-2527], GST-tagged) (Q5S007 970-2527): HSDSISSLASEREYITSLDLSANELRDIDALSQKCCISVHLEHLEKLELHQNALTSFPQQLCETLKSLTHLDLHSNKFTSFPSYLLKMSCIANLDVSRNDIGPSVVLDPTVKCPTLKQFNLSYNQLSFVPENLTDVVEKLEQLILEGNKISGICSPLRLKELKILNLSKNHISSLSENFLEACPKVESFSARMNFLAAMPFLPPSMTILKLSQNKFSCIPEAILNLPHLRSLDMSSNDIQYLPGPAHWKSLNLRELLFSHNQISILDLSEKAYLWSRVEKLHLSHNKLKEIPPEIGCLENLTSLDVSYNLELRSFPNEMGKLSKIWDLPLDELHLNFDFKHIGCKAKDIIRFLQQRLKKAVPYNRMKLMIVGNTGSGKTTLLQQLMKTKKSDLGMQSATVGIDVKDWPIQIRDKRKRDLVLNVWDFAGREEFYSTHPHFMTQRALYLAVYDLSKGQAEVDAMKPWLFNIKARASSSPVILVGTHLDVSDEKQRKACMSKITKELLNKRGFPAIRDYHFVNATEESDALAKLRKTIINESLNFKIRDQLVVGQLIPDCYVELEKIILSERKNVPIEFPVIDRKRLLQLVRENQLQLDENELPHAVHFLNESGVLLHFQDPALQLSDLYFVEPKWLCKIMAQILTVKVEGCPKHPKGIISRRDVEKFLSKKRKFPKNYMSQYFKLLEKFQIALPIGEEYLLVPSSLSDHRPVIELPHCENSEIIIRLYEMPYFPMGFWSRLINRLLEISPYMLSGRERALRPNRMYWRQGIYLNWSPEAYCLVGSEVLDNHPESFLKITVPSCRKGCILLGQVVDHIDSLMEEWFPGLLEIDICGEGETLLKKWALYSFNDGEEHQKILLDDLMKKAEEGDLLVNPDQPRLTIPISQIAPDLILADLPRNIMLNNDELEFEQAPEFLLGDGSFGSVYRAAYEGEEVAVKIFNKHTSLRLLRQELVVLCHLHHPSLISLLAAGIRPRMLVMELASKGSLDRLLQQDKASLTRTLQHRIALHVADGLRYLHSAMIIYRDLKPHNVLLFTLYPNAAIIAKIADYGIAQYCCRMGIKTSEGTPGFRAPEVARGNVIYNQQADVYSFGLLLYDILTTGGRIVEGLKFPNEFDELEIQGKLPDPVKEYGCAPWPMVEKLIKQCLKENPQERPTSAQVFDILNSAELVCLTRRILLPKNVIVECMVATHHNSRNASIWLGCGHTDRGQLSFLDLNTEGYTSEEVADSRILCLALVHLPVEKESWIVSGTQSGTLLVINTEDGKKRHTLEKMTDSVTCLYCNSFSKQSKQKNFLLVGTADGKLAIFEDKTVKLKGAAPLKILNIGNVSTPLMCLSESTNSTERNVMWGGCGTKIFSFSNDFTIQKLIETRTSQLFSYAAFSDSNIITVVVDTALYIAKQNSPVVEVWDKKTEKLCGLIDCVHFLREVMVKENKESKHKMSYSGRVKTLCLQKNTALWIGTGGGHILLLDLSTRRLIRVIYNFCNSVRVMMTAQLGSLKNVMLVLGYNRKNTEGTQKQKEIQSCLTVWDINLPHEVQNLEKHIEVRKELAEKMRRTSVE

This experiment deals with recombinant human LRRK2 (catalytic domain only [amino acids 970-2527], GST-tagged) (Homo sapiens (Human), UniProt Q5S007). Briefly: LRRK2 Enzymatic Assay. It counts as biochemical. To be noted: LRRKtide substrate, [32P]-ATP. The method, boiled down:
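Radiometric P81 filter-binding read-out of [32P]-ATP transfer to LRRKtide (20 μM) by 30 nM GST-LRRK2 970-2527, 2 h at room temperature after 20 min compound preincubation (10 μM–0.5 nM, 1% DMSO). IC50 derived from % remaining activity versus DMSO.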
Consider `Cc1nn(C(C)(C)C#N)cc1Nc1ncc(Cl)c(OCC2CCC(C(F)(F)F)CC2)n1` (centres unmarked) [Example 157, 2-(4-((5-chloro-4-((4-(trifluoromethyl)cyclohexyl)methoxy)pyrimidin-2-yl)amino)-3-methyl-1H-pyrazol-1-yl)-2-methylpropanenitrile], for which the IC50 is 50 to 200 nM.
In the case of `Cc1nn(C(C)(C)C#N)cc1Nc1ncc(Cl)c(OCC2COC2)n1` [Example 158, 2-(4-((5-chloro-4-(oxetan-3-ylmethoxy)pyrimidin-2-yl)amino)-3-methyl-1H-pyrazol-1-yl)-2-methylpropanenitrile], the IC50 fell in the range of 50 to 200 nM.
Under `Cc1c(Nc2ncc(Cl)c(OCC3CC(F)(F)C3)n2)cnn1C1CC(C#N)C1` (centres unmarked) [Example 159, 3-(4-((5-chloro-4-((3,3-difluorocyclobutyl)methoxy)pyrimidin-2-yl)amino)-5-methyl-1H-pyrazol-1-yl)cyclobutane-1-carbonitrile] stands below 50 nM; under `Cc1nn(C2CC(C#N)C2)cc1Nc1ncc(Cl)c(OCC2CC(F)(F)C2)n1` (centres unmarked) [Example 160, 3-(4-((5-chloro-4-((3,3-difluorocyclobutyl)methoxy)pyrimidin-2-yl)amino)-3-methyl-1H-pyrazol-1-yl)cyclobutane-1-carbonitrile], 50 to 200 nM; under `COC1CCC(COc2nc(Nc3cn(C(C)(C)C#N)nc3C)ncc2Cl)CC1` (centres unmarked) [Example 161, 2-(4-((5-chloro-4-((4-methoxycyclohexyl)methoxy)pyrimidin-2-yl)amino)-3-methyl-1H-pyrazol-1-yl)-2-methylpropanenitrile], below 50 nM.
Turning to `COC1CCC(COc2ccnc(Nc3cn(C(C)(C)C#N)nc3C)n2)CC1` (centres unmarked) [Example 162, 2-(4-((4-((4-methoxycyclohexyl)methoxy)pyrimidin-2-yl)amino)-3-methyl-1H-pyrazol-1-yl)-2-methylpropanenitrile], the IC50 lay in the range of 200 to 400 nM.
With `Fc1cnc(Nc2ccc(N3C4CCC3COC4)cc2)nc1OCC1CCNCC1(F)F` (centres unmarked) [Example 163, N-(4-(3-oxa-8-azabicyclo[3.2.1]octan-8-yl)phenyl)-4-((3,3-difluoropiperidin-4-yl)methoxy)-5-fluoropyrimidin-2-amine], the IC50 was 50 to 200 nM.
As for `CC(C)n1cc(Nc2ncc(F)c(OCC3CCNCC3(F)F)n2)cn1` (centres unmarked) [Example 164, 4-((3,3-difluoropiperidin-4-yl)methoxy)-5-fluoro-N-(1-isopropyl-1H-pyrazol-4-yl)pyrimidin-2-amine], the IC50 was below 50 nM.
In the case of `Fc1cnc(Nc2ccc(N3CCOCC3)cc2)nc1OCC1CCNCC1F` (centres unmarked) [Example 166, 5-fluoro-4-((3-fluoropiperidin-4-yl)methoxy)-N-(4-morpholinophenyl) pyrimidin-2-amine], the IC50 is below 50 nM.
Consider `CC(=O)N[C@H]1CC[C@@H](COc2nc(Nc3ccc(N4CCOCC4)cc3)ncc2F)C1` [Example 178, N-((1S,3R)-3-(((5-fluoro-2-((4-morpholinophenyl)amino)pyrimidin-4-yl)oxy)methyl)cyclo-pentyl)acetamide], for which the IC50 is 50 to 200 nM.
Regarding `CC(=O)N[C@H]1CC[C@@H](COc2nc(Nc3cn(C(C)(C)C#N)nc3C)ncc2F)C1` [Example 180, N-((1S,3R)-3-(((2-((1-(2-cyanopropan-2-yl)-3-methyl-1H-pyrazol-4-yl)amino)-5-fluoropyrimidin-4-yl)oxy)methyl)cyclo-pentyl)acetamide], the IC50 is below 50 nM.
Consider `CC(=O)N[C@H]1CC[C@H](COc2nc(Nc3ccc(N4C5CCC4COC5)cc3)ncc2F)CC1` [Example 181, N-((1R,4R)-4-(((2-((4-(3-oxa-8-azabicyclo[3.2.1]octan-8-yl)phenyl)amino)-5-fluoropyrimidin-4-yl)oxy)methyl)cyclo-hexyl)acetamide], for which the IC50 was below 50 nM.
As to `COc1cc(C(=O)N2CCOCC2)c(F)cc1Nc1ncc(F)c(OC[C@H]2CC[C@H](NC(C)=O)CC2)n1` [Example 182, N-((1R,4R)-4-(((5-fluoro-2-((5-fluoro-2-methoxy-4-(morpholine-4-carbonyl)phenyl)amino)pyrimidin-4-yl)oxy)methyl)cyclo-hexyl)acetamide], the IC50 is 50 to 200 nM.
`CC(=O)N[C@H]1CC[C@H](COc2nc(Nc3cnn(C)c3)ncc2F)CC1` [Example 183, N-((1R,4R)-4-(((5-fluoro-2-((1-methyl-1H-pyrazol-4-yl)amino)pyrimidin-4-yl)oxy)methyl)cyclo-hexyl)acetamide]: the half-maximal inhibitory concentration (IC50) was 50 to 200 nM.
As to `CCn1cc(Nc2ncc(F)c(OC[C@H]3CC[C@H](NC(C)=O)CC3)n2)cn1` [Example 184, N-((1R,4R)-4-(((2-((1-ethyl-1H-pyrazol-4-yl)amino)-5-fluoropyrimidin-4-yl)oxy)methyl)cyclo-hexyl)acetamide], the IC50 was below 50 nM.
The value for `CC(=O)N[C@H]1CC[C@H](COc2nc(Nc3cnn(C(C)C)c3)ncc2F)CC1` [Example 185, N-((1R,4R)-4-(((5-fluoro-2-((1-isopropyl-1H-pyrazol-4-yl)amino)pyrimidin-4-yl)oxy)methyl)cyclo-hexyl)acetamide] was below 50 nM; that for `CC(=O)N[C@H]1CC[C@H](COc2nc(Nc3cnn(C(C)(C)C#N)c3)ncc2F)CC1` [Example 186, N-((1R,4R)-4-(((2-((1-(2-cyanopropan-2-yl)-1H-pyrazol-4-yl)amino)-5-fluoropyrimidin-4-yl)oxy)methyl)cyclo-hexyl)acetamide] was below 50 nM; that for `CC(=O)N[C@H]1CC[C@H](COc2nc(Nc3cnn(C(F)(F)F)c3)ncc2F)CC1` [Example 187, N-((1R,4R)-4-(((5-fluoro-2-((1-(trifluoromethyl)-1H-pyrazol-4-yl)amino)pyrimidin-4-yl)oxy)methyl)cyclo-hexyl)acetamide] was 200 to 400 nM.
As to `CC(=O)N[C@H]1CC[C@H](COc2nc(Nc3cnn(CC(F)(F)F)c3)ncc2F)CC1` [Example 188, N-((1R,4R)-4-(((5-fluoro-2-((1-(2,2,2-trifluoroethyl)-1H-pyrazol-4-yl)amino)pyrimidin-4-yl)oxy)methyl)cyclo-hexyl)acetamide], the half-maximal inhibitory concentration (IC50) is below 50 nM.
On to `CC(=O)N[C@H]1CC[C@H](COc2nc(Nc3cnn(CCF)c3)ncc2F)CC1` [Example 189, N-((1R,4R)-4-(((5-fluoro-2-((1-(2-fluoroethyl)-1H-pyrazol-4-yl)amino)pyrimidin-4-yl)oxy)methyl)cyclo-hexyl)acetamide], for which the IC50 was below 50 nM.
Under `COCCn1cc(Nc2ncc(F)c(OC[C@H]3CC[C@H](NC(C)=O)CC3)n2)cn1` [Example 191, N-((1R,4R)-4-(((5-fluoro-2-((1-(2-methoxyethyl)-1H-pyrazol-4-yl)amino)pyrimidin-4-yl)oxy)methyl)cyclo-hexyl)acetamide] stands below 50 nM; under `CC(=O)N[C@H]1CC[C@H](COc2nc(Nc3cnn(C4COC4)c3)ncc2F)CC1` [Example 192, N-((1R,4R)-4-(((5-fluoro-2-((1-(oxetan-3-yl)-1H-pyrazol-4-yl)amino)pyrimidin-4-yl)oxy)methyl)cyclo-hexyl)acetamide], 50 to 200 nM.
`CC(=O)N[C@H]1CC[C@H](COc2nc(Nc3cnn(C4CCOCC4)c3)ncc2F)CC1` [Example 193, N-((1R,4R)-4-(((5-fluoro-2-((1-(tetrahydro-2H-pyran-4-yl)-1H-pyrazol-4-yl)amino)pyrimidin-4-yl)oxy)methyl)cyclo-hexyl)acetamide]: the IC50 was below 50 nM.
